Like-named read-outs stand apart in the source and are kept apart here.
How the values were obtained:
[1] = tested on: MCF-7 ESR1-Y537S; assay: Proliferation inhibition assay, MCF-7 ESR1-Y537S mutant cell line; assay type: cell-based; conditions: Homo sapiens, MCF7, 168 h, 7 days
Protocol: The tumor cell lines were cultured in an incubator at 37° C. with 5% CO2. Regular passaging was performed, and cells in the logarithmic growth phase were selected for plating.
• 1) Cells were stained with trypan blue and viable cells were counted. • 2) Cells were washed once with PBS and resuspended in RPMI 1640+10% FBS medium without phenol red. The concentration was adjusted to an appropriate one. • 3) 135 μL of the cell suspension per well was added to a culture plate, and cell-free culture medium was added to the blank control well. • 4) The plates were incubated overnight at 37° C. with 5% CO2 and 100% relative humidity. 3. Preparation of 10× Compound Working Solution and Treatment of Cells • 1) Preparation of 10× compound working solution: 199 μL of cell culture medium was added to V-bottom 96-well plates. From a 2000× compound storage plate, 1 μL of the compound was added to the 96-well plate containing cell culture medium. 1 μL of DMSO was added to vehicle control and blank control. […] The final concentration of DMSO was 0.05%. • 3) The 96-well cell plate was returned to the incubator for further culture, and cell viability was assessed after 7 days. […]
The inhibition rate (IR) of the compound was calculated using the following formula:
[formula] Inhibition rates for different concentrations of the compound were calculated in Excel. […]

[2] = tested on: human breast cancer MCF-7 cell subcutaneous xenograft tumor; assay type: in vivo; conditions: PO, QD; for T/C (%) / TGI (%) / Tumor volume (mm^3) (Day 21): Day 21; for Tumor volume (mm^3) (Day 21): listed as compound (I)
Protocol: (1) In Vivo Pharmacodynamic Study of Breast Cancer MCF-7 Cell Subcutaneous Xenograft Tumor BALB/c Nude Mouse Model
Objective: This study aimed to evaluate the in vivo efficacy of the crystal form C of the compound of formula (I) using a human breast cancer MCF-7 cell subcutaneous xenograft tumor model in nude mice.
Routine digestion with trypsin-EDTA (Gibco) was performed twice a week for passaging.
Cell inoculation: Estrogen pellets (0.36 mg/pellet; IRA) were subcutaneously inoculated into the left dorsum of each mouse. Three days later, 0.2 mL (1×10^7 cells) of MCF-7 cells (mixed with Matrigel; CORNING, volume ratio 1:1) were subcutaneously inoculated into the right dorsum of each mouse. When the average tumor volume reached 188 mm^3, the mice were grouped and the administration of compounds began.
An appropriate amount of the compound of formula (I) was weighed and prepared into 0.1, 0.3, 1, and 3 mg/mL solutions. […] Fulvestrant was used as the commercially available injection Faslodex.
The antitumor efficacy of the compounds was evaluated using Tumor Growth Inhibition (TGI, %) and relative tumor proliferation rate (T/C, %).
The Q value of combined medication index was calculated using the Jin formula. The criteria for judgment were as follows: a Q value of 0.85 to 1.15 indicated […] (+); a Q value>1.15 to 2.0 indicated enhancement (++); a Q value<0.85 to 0.55 indicated antagonism (−); and a Q value<0.55 indicated significant antagonism (−−). The formula was Q=Ea+b/(Ea+Eb−Ea×Eb), where Ea+b was the tumor inhibition rate of the combined medication group, and Ea and Eb were the tumor inhibition rates of the single medication groups, respectively.
Inter-group comparisons were analyzed using one-way ANOVA. […] A p value<0.05 was considered to indicate a significant difference.

For `FCCCN1CC[C@H](Nc2cnc(C3=C(CC(F)(F)F)CCCc4c3ccc3[nH]nc(F)c43)cn2)C1` [Compound of formula (I)], the IC50 ([1]; read-out: Relative IC50) was 11.2 nM, the IC90 ([1]; read-out: Relative IC90) was 101 nM and the “T/C (%)” value ([2]; 1 mg/kg) was 27.2%. The “TGI (%)” value ([2]; 1 mg/kg) was 85.3%, the “Tumor volume (mm^3) (Day 21)” value ([2]; 1 mg/kg) was 340 mm^3 and the “T/C (%)” value ([2]; 3 mg/kg) was 14.8%. For the same molecule, the “TGI (%)” value ([2]; 3 mg/kg) was 100.9%, the “Tumor volume (mm^3) (Day 21)” value ([2]; 3 mg/kg) was 179 mm^3 and the ORR % ([2]; 10 mg/kg) was 25%. The “T/C (%)” value ([2]; 10 mg/kg) was 11.3%, the “TGI (%)” value ([2]; 10 mg/kg) was 104.6% and the “Tumor volume (mm^3) (Day 21)” value ([2]; 10 mg/kg) was 140 mm^3. For the same molecule, the ORR % ([2]; 30 mg/kg) was 25%, the “T/C (%)” value ([2]; 30 mg/kg) was 9.7% and the “TGI (%)” value ([2]; 30 mg/kg) was 106.5%. For the same molecule, the “Tumor volume (mm^3) (Day 21)” value ([2]; 30 mg/kg) was 121 mm^3.

— patent US12410155B2, “Salt form and crystal form of tetrahydrocyclohepta indazole compound” (Zhejiang Yangli Pharmaceutical Technology Co., Ltd., priority 2021, dated 2025)
